# Data from the supplement of paper PMC9938120.
# Legend:
# Assay in all cases: drug sensitivity score (DSS3, normalised partial AUC of % inhibition dose-response) (DSS (score)); higher = more sensitive (stronger inhibition of viability); extreme values may be limits of the assay
# [1] = system: FMOC28 (patient-derived low-grade serous ovarian cancer cells); details: 72 h; library: FO5A; assay format: 2D, 384-well, CellTiter-Glo
# Outline: (§1)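 On 384-well flat clear-bottom plates carrying compounds at five concentrations across a 10,000-fold range, patient-derived ovarian cancer cells below passage 10 were incubated for 72 h at 37 °C with 5% CO2. CellTiter-Glo readout of viability was processed in Breeze. A higher drug sensitivity score, defined as the partial area under the percent-inhibition dose-response curve divided by the log of the upper asymptote, means greater sensitivity.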
# [2] = system: FMOC17 (patient-derived low-grade serous ovarian cancer cells); details: 72 h; library: FO5A; assay format: 2D, 384-well, CellTiter-Glo
# Outline: as §1
# [3] = system: FMOC25_1 (patient-derived low-grade serous ovarian cancer cells); details: 72 h; library: FO4B; assay format: 2D, 384-well, CellTiter-Glo
# Outline: as §1
# [4] = system: FMOC06 (patient-derived mucinous ovarian cancer cells); details: 72 h; library: FO5A; assay format: 2D, 384-well, CellTiter-Glo
# Outline: as §1
# [5] = system: FMOC04 (patient-derived high-grade serous ovarian cancer cells); details: 72 h; library: FO5A; assay format: 2D, 384-well, CellTiter-Glo
# Outline: as §1
# [6] = system: FMOC11 (patient-derived high-grade serous ovarian cancer cells); details: 72 h; library: FO5A; assay format: 2D, 384-well, CellTiter-Glo
# Outline: as §1
# [7] = system: FMOC22 (patient-derived mucinous ovarian cancer cells); details: 72 h; library: FO5A; assay format: 2D, 384-well, CellTiter-Glo
# Outline: as §1
# [8] = system: FMOC02_2 (patient-derived low-grade serous ovarian cancer cells); details: 72 h; library: FO5A; assay format: 2D, 384-well, CellTiter-Glo
# Outline: as §1
# [9] = system: FMOC24 (patient-derived high-grade serous ovarian cancer cells); details: 72 h; library: FO5A; assay format: 2D, 384-well, CellTiter-Glo
# Outline: as §1
# [10] = system: FMOC27 (patient-derived low-grade serous ovarian cancer cells); details: 72 h; library: FO5A; assay format: 2D, 384-well, CellTiter-Glo
# Outline: as §1
# [11] = system: FMOC02_1 (patient-derived low-grade serous ovarian cancer cells); details: 72 h; library: FO5A; assay format: 2D, 384-well, CellTiter-Glo
# Outline: as §1
# [12] = system: FMOC25_2 (patient-derived low-grade serous ovarian cancer cells); details: 72 h; library: FO5A; assay format: 2D, 384-well, CellTiter-Glo
# Outline: as §1
# [13] = system: FMOC14 (patient-derived high-grade serous ovarian cancer cells); details: 72 h; library: FO5A; assay format: 2D, 384-well, CellTiter-Glo
# Outline: as §1
# [14] = system: FMOC03 (patient-derived mucinous ovarian cancer cells); details: 72 h; library: FO5A; assay format: 2D, 384-well, CellTiter-Glo
# Outline: as §1
# [15] = system: FMOC09 (patient-derived high-grade serous ovarian cancer cells); details: 72 h; library: FO5A; assay format: 2D, 384-well, CellTiter-Glo
# Outline: as §1
# [16] = system: FMOC02_3 (patient-derived low-grade serous ovarian cancer cells); details: 72 h; library: FO5A; assay format: 2D, 384-well, CellTiter-Glo
# Outline: as §1
Structure (SMILES),drug sensitivity score [1],drug sensitivity score [2],drug sensitivity score [3],drug sensitivity score [4],drug sensitivity score [5],drug sensitivity score [6],drug sensitivity score [7],drug sensitivity score [8],drug sensitivity score [9],drug sensitivity score [10],drug sensitivity score [11],drug sensitivity score [12],drug sensitivity score [13],drug sensitivity score [14],drug sensitivity score [15],drug sensitivity score [16]
CCCCNc1ncc(C(=O)NCc2ccc(-n3ccnc3)cc2)c(NC2CCC(O)CC2)n1 (configuration not stated) [UNC2881],1.5,1.3,0,0,0,0,0.4,2.2,0.4,0,1.4,1.8,0,0.2,0,2.5
NC(=O)c1cccc(-c2cccc(OC(=O)NC3CCCCC3)c2)c1 [URB597],0,0,0,0,0,0,0,0,0,0,0,0,0,0,0,0.2
CS(=O)(=O)c1ccc(-c2cnc(N)c(C(=O)Nc3ccccc3)n2)cc1 [VE-821],0,0,0.6,0,0,0,0,0.8,3.65,1.3,3.3,2.2,1.9,0,0,0.2
O=C(O)CC1CC(c2ccccc2)=NO1 (configuration not stated) [VGX-1027],0,0,0,0,0,0,0,0,0,0,0,0,0,0,0,0
CCCC(CCC)C(=O)O [Valproic acid],0.1,0,0,0,0,0,0,0,0,0,0,0,0,0,0,0
COc1cc2/c(=N/c3ccc(Br)cc3F)nc[nH]c2cc1OCC1CCN(C)CC1 [Vandetanib],2.1,6.2,1.4,0.7,0.55,3.1,0,6.3,1.7,4.8,5.6,4.1,0.1,2.7,3.1,5.1
CCc1c(C(=O)C(N)=O)c2c(OCC(=O)O)cccc2n1Cc1ccccc1 [Varespladib],0,0,0,0,0,0,0,0,0.1,0,0,0,0,0,0,0
Clc1ccc(Nc2nnc(Cc3ccncc3)c3ccccc23)cc1 [Vatalanib],3,0,0,0,0,0,0,0.9,2.8,0,0.2,0.7,0,0.2,0,0
C[C@]1(c2nc3c(C(N)=O)cccc3[nH]2)CCCN1 [Veliparib],0,0,0.1,0,0,0,0,1.6,1.3,1.4,0.4,1.6,0,0,0,3.2
CCCS(=O)(=O)Nc1ccc(F)c(C(=O)c2c[nH]c3ncc(-c4ccc(Cl)cc4)cc23)c1F [Vemurafenib],2.6,1,1.7,0.3,0,1.6,2.5,1.6,1.65,0,3.3,1.6,1.3,3,0,1.8
CC1(C)CCC(CN2CCN(c3ccc(C(=O)NS(=O)(=O)c4ccc(NCC5CCOCC5)c([N+](=O)[O-])c4)c(Oc4cnc5[nH]ccc5c4)c3)CC2)=C(c2ccc(Cl)cc2)C1 [Venetoclax],0,0,0,0,0,0,0,0,1.8,0.3,0,0,0,0,0,0
CS(=O)(=O)c1ccc(C(=O)Nc2ccc(Cl)c(-c3ccccn3)c2)c(Cl)c1 [Vismodegib],0,0,0,0.3,0,0,0,0.4,1.95,0.8,0,0,0,0.6,0,0
